Consider 7 compounds from patent US12398098B2, “Waterborne crosslinker composition” (priority 2020, dated 2025).

Molecules are shown by their SMILES. Read-outs that look alike come from different tables or passages of the source.

Series [1] concerns mouse embryonic stem (mES) reporter cell lines.
The next series deals with Bscl2. The experiment in a line: ToxTracker genotoxicity assay, Bscl2-GFP reporter.
In series [2] the test system is Rtkn. The experiment in a line: ToxTracker genotoxicity assay, Rtkn-GFP reporter.
Series [3] deals with Rtkn. Particulars: mouse.
Setting [4] is: Bscl2 and Rtkn, absence and presence of S9.
The mark [5] stands for this setting: With S9 rat liver extract, at 10% cytotoxicity, 3 h exposure and 24 h recovery.
[6] abbreviates: With S9 rat liver extract, at 25% cytotoxicity, 3 h exposure and 24 h recovery.
Where [7] appears, read: With S9 rat liver extract, at 50% cytotoxicity, 3 h exposure and 24 h recovery.
[8] abbreviates: Without S9 rat liver extract, at 10% cytotoxicity, 24 h exposure.
[9] abbreviates: Without S9 rat liver extract, at 25% cytotoxicity, 24 h exposure.
The mark [10] stands for this setting: Without S9 rat liver extract, at 50% cytotoxicity, 24 h exposure.

Consider `CCCCOCC(CN1CC1C)OC(=O)NCCCCCC/N=c1\oc(=O)n(CCCCCCNC(=O)OC(COCCCC)CN2CC2C)c(=O)n1CCCCCCNC(=O)OC(COCCCC)CN1CC1C` (centres unmarked) [Composition 27], for which, in series [1] (setting [4]), the “Genotoxicity test result (overall)” value is on record as “non-genotoxic”.
Turning to `CCCCOCC(CN1CC1(C)C)OC(=O)NCCCCCCn1c(=O)n(CCCCCCNC(=O)OC(COCCCC)CN2CC2(C)C)c(=O)n(CCCCCCNC(=O)OC(COCCCC)CN2CC2(C)C)c1=O` (centres unmarked) [Compound. 15], the “Bscl 2 GFP reporter induction level” value with Bscl2 (setting [5]) is listed as 1.1; in the series with Bscl2 (setting [6]), 1.1; with Bscl2 (setting [7]), 1.1; in the series on Bscl2 (setting [8]), 1.2; in the series on Bscl2 (setting [9]), 1.2; in the series with Bscl2 (setting [10]), 1.1. In addition, the “Rtkn GFP reporter induction level” value in the series on Rtkn [2] (setting [5]) is listed as 1.2; in the series on Rtkn [2] (setting [6]) it was 1.2; with Rtkn [2] (setting [7]), 1.3; in the series on Rtkn [2] (setting [8]) it was 1.2; in the series with Rtkn [2] (setting [9]), 1.2; in the series with Rtkn [2] (setting [10]) it was 1.2. Moreover, the “Genotoxicity test result (overall)” value in series [1] is given as “non-genotoxic”.
In the case of `CC(CN1CC1C)OC(=O)NCCCCCCn1c(=O)n(CCCCCCNC(=O)OC(C)CN2CC2C)c(=O)n(CCCCCCNC(=O)OC(C)CN2CC2C)c1=O` (centres unmarked) [Composition 16], the “Bscl 2 GFP reporter induction level” value with Bscl2 (setting [5]) worked out at 1.2; in the series on Bscl2 (setting [6]) it was 1.3; with Bscl2 (setting [7]) it was 1.2; in the series on Bscl2 (setting [8]), 1.2; with Bscl2 (setting [9]), 1.3; in the series with Bscl2 (setting [10]), 1.3. Further, the “Rtkn GFP reporter induction level” value was 1.2 in the series with Rtkn [2] (setting [5]); 1.1 in the series on Rtkn [2] (setting [6]); 0.9 in the series with Rtkn [2] (setting [7]); 1.2 in the series with Rtkn [2] (setting [8]); 1.2 with Rtkn [2] (setting [9]); 1.4 in the series on Rtkn [2] (setting [10]). In addition, in series [1], the “Genotoxicity test result (overall)” value is on record as “non-genotoxic”.
As for `CCCCC(CC)COCC(CN1CC1C)OC(=O)NCCCCCCn1c(=O)n(CCCCCCNC(=O)OC(COCC(CC)CCCC)CN2CC2C)c(=O)n(CCCCCCNC(=O)OC(COCC(CC)CCCC)CN2CC2C)c1=O` (centres unmarked) [Composition 23], the “Genotoxicity test result (overall)” value in series [1] (setting [4]) is on record as “non-genotoxic”.
Turning to `CCCCOCC(CN1CC1C)OC(=O)NCCCCCCn1c(=O)n(CCCCCCNC(=O)OC(COCCCC)CN2CC2C)c(=O)n(CCCCCCNC(=O)OC(COCCCC)CN2CC2C)c1=O` (centres unmarked) [Composition 1], the “Bscl 2 GFP reporter induction level” value with Bscl2 (setting [7]) came out at 0.9. Besides, the “Rtkn GFP reporter induction level” value is 0.9 in the series with Rtkn [3]; 0.8 in the series on Rtkn [2] (setting [6]); 0.6 in the series with Rtkn [2] (setting [7]); 0.8 in the series on Rtkn [2] (setting [8]); 0.8 in the series on Rtkn [2] (setting [9]); 0.6 in the series on Rtkn [2] (setting [10]). Moreover, in series [1], the “Genotoxicity test result (overall)” value was “non-genotoxic”.
`CCCCCCCCCC(=O)OCC(CN1CC1C)OC(=O)NCCCCCCn1c(=O)n(CCCCCCNC(=O)OC(COC(=O)CCCCCCCCC)CN2CC2C)c(=O)n(CCCCCCNC(=O)OC(COC(=O)CCCCCCCCC)CN2CC2C)c1=O` (centres unmarked) [Composition 25-2]: the “Bscl 2 GFP reporter induction level” value is recorded as 1.0 with Bscl2 (setting [5]); 1.1 in the series with Bscl2 (setting [6]); 1.1 with Bscl2 (setting [7]); 1.1 in the series with Bscl2 (setting [8]); 1.2 with Bscl2 (setting [9]); 1.0 in the series on Bscl2 (setting [10]). The “Rtkn GFP reporter induction level” value is given as 1.1 in the series with Rtkn [2] (setting [5]); 1.1 in the series with Rtkn [2] (setting [6]); 1.2 with Rtkn [2] (setting [7]); 1.1 with Rtkn [2] (setting [8]); 1.2 with Rtkn [2] (setting [9]); 1.0 in the series on Rtkn [2] (setting [10]). In addition, the “Genotoxicity test result (overall)” value in series [1] (setting [4]) is on record as “non-genotoxic”.
`CCC(COC(=O)CCN1CC1C)(COC(=O)CCN1CC1C)COC(=O)CCN1CC1C` (centres unmarked) [Comp. Ex. 1, trimethylolpropane tris(2-methyl aziridinepropionate), reference compound]: the “Genotoxicity test result (overall)” value in series [1] was “genotoxic”.
